Results on 8 compounds are retold here after patent US20090030086A1, “ANTIMICROBIAL AGENTS” (priority 2005, published 2009).

Structures are written as SMILES. In brackets after ≈: the same amount, converted by molar mass. Like-named read-outs stand apart in the source and are kept apart here.

The subject of assay [1] is S. aureus ATCC 29213. As to the kind of experiment: MIC assay. Format: cell-based, Staphylococcus aureus. The settings on record: Staphylococcus aureus. The protocol: 1. Staphylococcus aureus—the principal staphylococcal test micro-organism used in these studies was Staphylococcus aureus ATCC 29213. This strain is the one recommended for QC/QA purposes in Minimum Inhibitory Concentration (MIC) assays by the US Clinical and Laboratory Standards Institute (formerly the NCCLS), an FDA-recognised body.
(§1) The staphylococci and enterococci were cultured and maintained on Mueller-Hinton Medium (agar and broth) at pH 7.2; they were incubated aerobically at 37° C. for 24 hours.
(§2) This is a standard international method for quantitatively assessing the antimicrobial activity of a compound in a liquid medium. The method used a 96-well microtitre plate, capable of holding about 200 μl of liquid per well. […] The culture media were as described above for the relevant test organisms.
(§3) The wells were inoculated with a liquid suspension of freshly grown micro-organism and incubated under the conditions described above. After incubation, the microtitre plate was examined visually (with the aid of a light box) for cloudiness in each well, which would indicate microbial growth. The MIC value was recorded as the lowest concentration of test compound required to inhibit microbial growth, i.e., the lowest concentration for which the liquid in the well remained clear.
(§4) The assays were conducted in duplicate and included both negative (culture medium only) and positive (culture medium, diluting solvent and inoculum) controls.
(§5) The following experiments all used S. aureus ATCC 29213 as the test organism. MIC, MBC and DDA assays, as described above, were carried out using a range of different benzoquinones and hydroquinones. Supplemented DDA assays, in the presence of salt, lipid and blood, were also conducted.

Assay [2] deals with S. aureus ATCC 29213. As to the kind of experiment: MBC assay. As to conditions: for MBC: Staphylococcus aureus. The format is cell-based, Staphylococcus aureus. As to the method:
as §1
(§6) This assay, normally carried out after an MIC assay, determines the minimum concentration of a compound that is lethal to the micro-organism being tested.
(§7) These samples were then individually sub-cultured on non-selective agar medium, under the incubation conditions described above. Following incubation they were examined visually for bacterial growth.
as §5

In assay [3] the test system is S. aureus ATCC 29213. As to the kind of experiment: Disc diffusion assay (DDA). Format: cell-based, Staphylococcus aureus. As to conditions: for zone of inhibition at 200 µg/disc: Staphylococcus aureus. As to the method:
as §1
(§8) A sterile paper disc was impregnated with a sample of the test compound and a minimum of 30 minutes allowed for the solvents to evaporate as far as possible. The disc was then placed on an agar plate onto which the test micro-organism had been inoculated. The plate was then incubated under the conditions described above, following which it was examined visually for signs of bacterial growth. […] The diameter of this zone of “inhibition” was measured using a ProtoCOL™ automated zone sizer (Synbiosis, Cambridge, UK).
(§9) The area of the zone of inhibition was calculated from the measured zone diameter (D) using the formula π(D/2)^2.
(§10) For most DDA assays, 200 μg of each compound was loaded onto each disc.

Assay [4] has as its system S. aureus ATCC 29213. Put plainly: Supplemented disc diffusion assay. Format: cell-based, Staphylococcus aureus. As to conditions: Staphylococcus aureus, ATCC29213, 24 h. The protocol:
as §1, §8
(§11) Performance under these conditions can provide a more reliable indication of activity on topical application. For assays conducted using S. aureus strains, the supplements were defibrinated horse blood (5% v/v), lipid (Tween™ 80 at 1% v/v) and sodium chloride (100 mM). For those using Propionibacterium spp. strains, the supplements were lipid (Tween™ 80 at 1% v/v) and sodium chloride (100 mM).
as §5, §10
For orientation: Agar diffusion results depend on both activity and mobility in agar.

In assay [5] the test system is P. acnes NCTC 737. As to the kind of experiment: Disc diffusion assay (DDA). Format: cell-based, Propionibacterium acnes. The settings on record: Cutibacterium acnes. The protocol:
(§12) The Propionibacterium spp organisms were cultured and maintained on Wilkins-Chalgren Anaerobe Medium (agar and broth) at pH 6.0; cultures were incubated anaerobically at 37° C. for 72 hours.
as §8, §9, §10

In assay [6] the test system is P. acnes NCTC 737. Put plainly: Supplemented disc diffusion assay. Format: cell-based, Propionibacterium acnes. The settings on record: for effect of lipid on antimicrobial activity: P. acnes NCTC 737, activity increases in the presence of lipid; for zone of inhibition at 200 µg/disc: Cutibacterium acnes, NCTC737, 72 h. The protocol: as §12, §8, §11
(§13) MIC, MBC and DDA assays, as described above, were carried out using a range of different benzoquinones and hydroquinones. Supplemented DDA assays, in the presence of salt and lipid, were also conducted.
as §10

Assay [7] concerns P. acnes NCTC 737. Put plainly: MIC assay. Format: cell-based, Propionibacterium acnes. The settings on record: Cutibacterium acnes, NCTC737, 72 h, pH 6. As to the method:
2. Propionibacterium spp.—the principal propionibacterial strain used in these studies was Propionibacterium acnes NCTC 737.
as §12, §2, §3, §4, §13

Assay [8] concerns P. acnes NCTC 737. Put plainly: MBC assay. The format is cell-based, Propionibacterium acnes. As to conditions: for MIC/MBC ratio: P. acnes NCTC 737. The protocol:
as §12, §6, §7, §13

[9] abbreviates: ATCC29213, S. aureus ATCC 29213, Mueller-Hinton broth pH 7.2, aerobic, 37° C., 24 hours, read-out: MIC.
Setting [10] is: ATCC29213, S. aureus ATCC 29213, unsupplemented agar, 200 μg per disc (thymoquinone 50 μg, 2,6-dimethoxy-p-benzoquinone 100 μg), read-out: DDA (diameter of zone of inhibition).
Setting [11] is: S. aureus ATCC 29213, Tween 80 at 1% v/v, 200 μg per disc (thymoquinone 50 μg, 2,6-dimethoxy-p-benzoquinone 100 μg), read-out: DDA + lipid.
Setting [12] is: S. aureus ATCC 29213, defibrinated horse blood 5% v/v, 200 μg per disc (thymoquinone 50 μg, 2,6-dimethoxy-p-benzoquinone 100 μg), read-out: DDA + blood.
Setting [13] is: S. aureus ATCC 29213, sodium chloride 100 mM, 200 μg per disc (thymoquinone 50 μg, 2,6-dimethoxy-p-benzoquinone 100 μg), read-out: DDA + salt.
Where [14] appears, read: NCTC737, P. acnes NCTC 737, unsupplemented agar, 200 μg per disc (2,6-dimethoxy-p-benzoquinone 100 μg), read-out: DDA (diameter of zone of inhibition).

Take `Cc1ccc(O)c(O)c1` [4-methylcatechol]: the MIC (in general, the lowest concentration found to suppress growth) with S. aureus ATCC 29213 [1] (setting [9]) worked out at 31.2 µg/mL (≈ 252 µM). Moreover, the MIC/MBC ratio in the assay with S. aureus ATCC 29213 [2] was 1. For the same compound, the MBC (in general, the smallest concentration meeting the test's criterion for killing) in the assay on S. aureus ATCC 29213 [2] (ATCC29213, read-out: MBC) was 31.2 µg/mL (≈ 252 µM). Besides, the zone of inhibition at 200 µg/disc in the assay on S. aureus ATCC 29213 [3] (setting [10]) worked out at 18.3 mm; with S. aureus ATCC 29213 [4] (setting [11]), 20 mm; in the assay with S. aureus ATCC 29213 [4] (setting [12]) it was 0 mm; in the assay on S. aureus ATCC 29213 [4] (setting [13]), 20.9 mm.
Consider `O=[N+]([O-])c1ccc(O)c(O)c1` [4-nitrocatechol], for which the MIC with S. aureus ATCC 29213 [1] (setting [9]) stood at 125 µg/mL (≈ 806 µM). In the assay on S. aureus ATCC 29213 [2], the MIC/MBC ratio was less than 0.5. For the same compound, the MBC in the assay with S. aureus ATCC 29213 [2] (ATCC29213, read-out: MBC) is greater than 250 µg/mL. Also, the zone of inhibition at 200 µg/disc in the assay on S. aureus ATCC 29213 [3] (setting [10]) came out at 18.9 mm; in the assay with S. aureus ATCC 29213 [4] (setting [11]), 16.5 mm; in the assay on S. aureus ATCC 29213 [4] (setting [12]) it was 11.8 mm; with S. aureus ATCC 29213 [4] (setting [13]), 19 mm.
For `CC(C)(C)c1ccc(O)c(O)c1` [4-t-butylcatechol], the MIC in the assay on S. aureus ATCC 29213 [1] (setting [9]) turned out to be 62.5 µg/mL (≈ 376 µM). In the assay with S. aureus ATCC 29213 [2], the MIC/MBC ratio is 1. Moreover, in the assay on S. aureus ATCC 29213 [2] (ATCC29213, read-out: MBC), the MBC was 62.5 µg/mL (≈ 376 µM). The zone of inhibition at 200 µg/disc with S. aureus ATCC 29213 [3] (setting [10]) amounted to 12 mm; with S. aureus ATCC 29213 [4] (setting [11]), 10.9 mm; in the assay on S. aureus ATCC 29213 [4] (setting [12]), 9.65 mm; in the assay on S. aureus ATCC 29213 [4] (setting [13]), 13.1 mm.
For the compound `CC1=C(C)C(=O)C(C)=C(C)C1=O` [duroquinone, 2,3,5,6-tetramethyl-p-benzoquinone], inhibition of growth in the assay with S. aureus ATCC 29213 [1] (ATCC29213, 24 h, pH 7.2) (MIC) required 31.2 µg/mL (≈ 190 µM). Besides, the MIC/MBC ratio in the assay on S. aureus ATCC 29213 [2] worked out at 0.5. In the assay on S. aureus ATCC 29213 [2] (ATCC29213), the MBC worked out at 62.5 µg/mL (≈ 381 µM). Further, the zone of inhibition at 200 µg/disc with S. aureus ATCC 29213 [3] (ATCC29213, read-out: DDA (diameter of zone of inhibition)) is 13.3 mm; in the assay with S. aureus ATCC 29213 [4] (read-out: DDA + blood), 0 mm; with S. aureus ATCC 29213 [4] (read-out: DDA + lipid) it was 16.2 mm; in the assay on S. aureus ATCC 29213 [4] (read-out: DDA + salt), 16.5 mm.
Regarding `O=C1C=CC(=O)C=C1` [p-benzoquinone], the zone of inhibition at 200 µg/disc in the assay on S. aureus ATCC 29213 [3] (setting [10]) came to 29.3 mm; with P. acnes NCTC 737 [5] (setting [14]) it was 24.9 mm. The “effect of lipid on antimicrobial activity” value in the assay with P. acnes NCTC 737 [6] is given as “potentiated”.
As to `Oc1ccc(O)cc1` [p-hydroquinone], in the assay on S. aureus ATCC 29213 [2], the MIC/MBC ratio is 1. In addition, the “DDA (diameter of zone of inhibition)” value with S. aureus ATCC 29213 [3] (S. aureus ATCC 29213, unsupplemented agar, 200 μg per disc (thymoquinone 50 μg, 2,6-dimethoxy-p-benzoquinone 100 μg)) is 18.94 mm.
The compound `O=C1C(Cl)=C(Cl)C(=O)C(Cl)=C1Cl` [tetrachloro-p-benzoquinone] returned an MIC against P. acnes NCTC 737 [7] of 31.2 µg/mL (≈ 127 µM). Besides, in the assay on P. acnes NCTC 737 [8] (Cutibacterium acnes, NCTC737), the MBC was 62.5 µg/mL (≈ 254 µM). Further, the MIC/MBC ratio in the assay with P. acnes NCTC 737 [8] amounted to 0.5. For the same compound, the zone of inhibition at 200 µg/disc with P. acnes NCTC 737 [5] (NCTC737, read-out: DDA (diameter of zone of inhibition)) was found to be 11.6 mm; with P. acnes NCTC 737 [6] (read-out: DDA + lipid), 12.7 mm; with P. acnes NCTC 737 [6] (read-out: DDA + salt), 18.9 mm.
Turning to `CC1=CC(=O)C(C(C)C)=CC1=O` [thymoquinone], the MIC/MBC ratio in the assay with S. aureus ATCC 29213 [2] and in the assay on P. acnes NCTC 737 [8] was 0.5 each time. The zone of inhibition at 200 µg/disc in the assay with S. aureus ATCC 29213 [3] (setting [10]) was found to be 15.6 mm; in the assay with P. acnes NCTC 737 [5] (setting [14]) it was 27.5 mm. For the same compound, the “effect of lipid on antimicrobial activity” value with P. acnes NCTC 737 [6] is “potentiated”.
